Test results taken from ChEMBL document CHEMBL5038625, “Application of the dual-tail approach for the design and synthesis of novel Thiopyrimidine-Benzenesulfonamide hybrids as selective carbonic anhydrase inhibitors” (Eur J Med Chem, 2022).

Key:
SN12C = test: Antiproliferative activity against human SN12C cells assessed as cell growth inhibition at 10 uM incubated for 24 hrs by sulforhodamine B assay; format: functional; conditions: read-out: GI
T47D = test: Antiproliferative activity against human T47D cells assessed as cell growth inhibition at 10 uM incubated for 24 hrs by sulforhodamine B assay; format: functional; conditions: read-out: GI
NCI/ADR-RES = test: Antiproliferative activity against human NCI-ADR-RES cells assessed as cell growth inhibition at 10 uM incubated for 24 hrs by sulforhodamine B assay; format: functional; conditions: read-out: GI
CCRF-CEM = test: Antiproliferative activity against human CCRF-CEM cells assessed as cell growth inhibition at 10 uM incubated for 24 hrs by sulforhodamine B assay; format: functional; conditions: read-out: GI
SF-295 = test: Antiproliferative activity against human SF-295 cells assessed as cell growth inhibition at 10 uM incubated for 24 hrs by sulforhodamine B assay; format: functional; conditions: read-out: GI
NCI-H226 = test: Antiproliferative activity against human NCI-H226 cells assessed as cell growth inhibition at 10 uM incubated for 24 hrs by sulforhodamine B assay; format: functional; conditions: read-out: GI
K562 = test: Antiproliferative activity against human K562 cells assessed as cell growth inhibition at 10 uM incubated for 24 hrs by sulforhodamine B assay; format: functional; conditions: read-out: GI
MCF7 = test: Antiproliferative activity against human MCF7 cells assessed as cell growth inhibition at 10 uM incubated for 24 hrs by sulforhodamine B assay; format: functional; conditions: read-out: GI
SK-MEL-5 = test: Antiproliferative activity against human SK-MEL-5 cells assessed as cell growth inhibition at 10 uM incubated for 24 hrs by sulforhodamine B assay; format: functional; conditions: read-out: GI
CAKI-1 = test: Antiproliferative activity against human CAKI-1 cells assessed as cell growth inhibition at 10 uM incubated for 24 hrs by sulforhodamine B assay; format: functional; conditions: read-out: GI
UO-31 = test: Antiproliferative activity against human UO-31 cells assessed as cell growth inhibition at 10 uM incubated for 24 hrs by sulforhodamine B assay; format: functional; conditions: read-out: GI
HOP-92 = test: Antiproliferative activity against human HOP-92 cells assessed as cell growth inhibition at 10 uM incubated for 24 hrs by sulforhodamine B assay; format: functional; conditions: read-out: GI
MOLT-4 = test: Antiproliferative activity against human MOLT-4 cells assessed as cell growth inhibition at 10 uM incubated for 24 hrs by sulforhodamine B assay; format: functional; conditions: read-out: GI
HL-60 = test: Antiproliferative activity against human HL-60 cells assessed as cell growth inhibition at 10 uM incubated for 24 hrs by sulforhodamine B assay; format: functional; conditions: read-out: GI
Carbonic anhydrase 9 = Carbonic anhydrase 9 (Homo sapiens, UniProt Q16790); test: Inhibition of human CA9 preincubated for 15 mins by phenol red dye based stopped flow CO2 hydration assay
EKVX = test: Antiproliferative activity against human EKVX cells assessed as cell growth inhibition at 10 uM incubated for 24 hrs by sulforhodamine B assay; format: functional; conditions: read-out: GI
MDA-MB-231 = test: Antiproliferative activity against human MDA-MB-231 cells assessed as cell growth inhibition at 10 uM incubated for 24 hrs by sulforhodamine B assay; format: functional; conditions: read-out: GI
A549 = test: Antiproliferative activity against human A549 cells assessed as cell growth inhibition at 10 uM incubated for 24 hrs by sulforhodamine B assay; format: functional; conditions: read-out: GI
SR = test: Antiproliferative activity against human SR cells assessed as cell growth inhibition at 10 uM incubated for 24 hrs by sulforhodamine B assay; format: functional; conditions: read-out: GI
HCT-116 = test: Antiproliferative activity against human HCT-116 cells assessed as cell growth inhibition at 10 uM incubated for 24 hrs by sulforhodamine B assay; format: functional; conditions: read-out: GI
U-251 = test: Antiproliferative activity against human U-251 cells assessed as cell growth inhibition at 10 uM incubated for 24 hrs by sulforhodamine B assay; format: functional; conditions: read-out: GI
A498 = test: Antiproliferative activity against human A498 cells assessed as cell growth inhibition at 10 uM incubated for 24 hrs by sulforhodamine B assay; format: functional; conditions: read-out: GI
SF-539 = test: Antiproliferative activity against human SF-539 cells assessed as cell growth inhibition at 10 uM incubated for 24 hrs by sulforhodamine B assay; format: functional; conditions: read-out: GI
OVCAR-4 = test: Antiproliferative activity against human OVCAR-4 cells assessed as cell growth inhibition at 10 uM incubated for 24 hrs by sulforhodamine B assay; format: functional; conditions: read-out: GI
HCT-15 = test: Antiproliferative activity against human HCT-15 cells assessed as cell growth inhibition at 10 uM incubated for 24 hrs by sulforhodamine B assay; format: functional; conditions: read-out: GI
RPMI-8226 = test: Antiproliferative activity against human RPMI-8226 cells assessed as cell growth inhibition at 10 uM incubated for 24 hrs by sulforhodamine B assay; format: functional; conditions: read-out: GI
RXF 393 = test: Antiproliferative activity against human RXF 393 cells assessed as cell growth inhibition at 10 uM incubated for 24 hrs by sulforhodamine B assay; format: functional; conditions: read-out: GI
OVCAR-8 = test: Antiproliferative activity against human OVCAR-8 cells assessed as cell growth inhibition at 10 uM incubated for 24 hrs by sulforhodamine B assay; format: functional; conditions: read-out: GI
PC-3 = test: Antiproliferative activity against human PC-3 cells assessed as cell growth inhibition at 10 uM incubated for 24 hrs by sulforhodamine B assay; format: functional; conditions: read-out: GI
MDA-MB-468 = test: Antiproliferative activity against human MDA-MB-468 cells assessed as cell growth inhibition at 10 uM incubated for 24 hrs by sulforhodamine B assay; format: functional; conditions: read-out: GI
786-0 = test: Antiproliferative activity against human 786-0 cells assessed as cell growth inhibition at 10 uM incubated for 24 hrs by sulforhodamine B assay; format: functional; conditions: read-out: GI
KM12 = test: Antiproliferative activity against human KM12 cells assessed as cell growth inhibition at 10 uM incubated for 24 hrs by sulforhodamine B assay; format: functional; conditions: read-out: GI
SF-268 = test: Antiproliferative activity against human SF-268 cells assessed as cell growth inhibition at 10 uM incubated for 24 hrs by sulforhodamine B assay; format: functional; conditions: read-out: GI
ACHN = test: Antiproliferative activity against human ACHN cells assessed as cell growth inhibition at 10 uM incubated for 24 hrs by sulforhodamine B assay; format: functional; conditions: read-out: GI
Hs-578T = test: Antiproliferative activity against human HS-578T cells assessed as cell growth inhibition at 10 uM incubated for 24 hrs by sulforhodamine B assay; format: functional; conditions: read-out: GI
LOX IMVI = test: Antiproliferative activity against human LOX IMVI cells assessed as cell growth inhibition at 10 uM incubated for 24 hrs by sulforhodamine B assay; format: functional; conditions: read-out: GI

| Ki (Carbonic anhydrase 9) | SMILES | inhibition of growth at 10 µM (T47D) | inhibition of growth at 10 µM (K562) | inhibition of growth at 10 µM (MCF7) | inhibition of growth at 10 µM (CAKI-1) | inhibition of growth at 10 µM (UO-31) | inhibition of growth at 10 µM (MOLT-4) | inhibition of growth at 10 µM (EKVX) | inhibition of growth at 10 µM (MDA-MB-231) | inhibition of growth at 10 µM (SR) | inhibition of growth at 10 µM (U-251) | inhibition of growth at 10 µM (A498) | inhibition of growth at 10 µM (SF-539) | inhibition of growth at 10 µM (OVCAR-4) | inhibition of growth at 10 µM (HCT-15) | inhibition of growth at 10 µM (RPMI-8226) | inhibition of growth at 10 µM (RXF 393) | inhibition of growth at 10 µM (PC-3) | also measured |
| --- | --- | --- | --- | --- | --- | --- | --- | --- | --- | --- | --- | --- | --- | --- | --- | --- | --- | --- | --- |
| 92.3 nM | CC(C)c1nc(SCC(=O)c2ccccc2)nc(Nc2cccc(S(N)(=O)=O)c2)c1C#N | 17.9% | 26.7% | 12.6% | 10.8% | 27.4% | 28.2% | 5.72% | 14.9% | 19% | 5.45% | 10.7% | 12.2% | 9.85% | 12.1% | 17.9% | 17.3% | 27.3% | inhibition of growth at 10 µM (SN12C): 8.21%; inhibition of growth at 10 µM (NCI/ADR-RES): 5.69%; inhibition of growth at 10 µM (CCRF-CEM): 13.8%; inhibition of growth at 10 µM (SF-295): 5.43%; inhibition of growth at 10 µM (NCI-H226): 10%; inhibition of growth at 10 µM (SK-MEL-5): 7.01%; inhibition of growth at 10 µM (HOP-92): 61%; inhibition of growth at 10 µM (HL-60): 25.2%; inhibition of growth at 10 µM (A549): 5.5%; inhibition of growth at 10 µM (HCT-116): 5.73%; inhibition of growth at 10 µM (OVCAR-8): 5% |
| 7 nM | COc1ccc(C(=O)CSc2nc(Nc3cccc(S(N)(=O)=O)c3)c(C#N)c(-c3cc(OC)ccc3OC)n2)cc1 | 15.2% | 10.7% | 11.8% | 29.2% | 29.2% | 18.2% | 6.35% | 5.72% | 12.7% | 9.1% | 23.9% | 11.2% | 7.16% | 10.6% | 12.6% | 11.7% | 8.57% | inhibition of growth at 10 µM (MDA-MB-468): 8.93%; inhibition of growth at 10 µM (786-0): 7.02%; inhibition of growth at 10 µM (KM12): 5.79%; inhibition of growth at 10 µM (SF-268): 5.3%; inhibition of growth at 10 µM (ACHN): 5.69%; inhibition of growth at 10 µM (Hs-578T): 10.4%; inhibition of growth at 10 µM (LOX IMVI): 11.3% |
